From US10994015B2, “EGFR proteolysis targeting chimeric molecules and associated methods of use” (Arvinas Operations, Inc., priority 2016, dated 2021)

Tests used:
[1] = target: EGFR L858R/T790M double mutant (H1975) (Homo sapiens (Human), UniProt P00533, L858R/T790M); assay: EGFR protein degradation assay (Western blot); type: cell-based; conditions: 72 hours, 300 nM to 10 nM
Experimental: (§1) EGFR Protein Degradation assay
Cells expressing the appropriate form of EGFR were seeded in 6-well plates (300,000 cells per well) and allowed to adhere to the plate overnight. […] To harvest cells, media was removed and cells were washed once with ice-cold phosphate-buffered saline (PBS) prior to the addition of 400 μl lysis buffer (Cell Signaling Technology) supplemented with a protease inhibitor cocktail (Thermo Scientific). Cells were scraped from the plate and the cell lysate transferred to an Eppendorf tube and then clarified by a single spin at 10 000 rpm for 10 minutes. The protein concentration of each lysate was determined (BCA kit, Thermo Scientific) prior to the addition of loading buffer (Invitrogen) and reducing agent (Invitrogen). 10 μg protein of each lysate was loaded on an SDS/PAGE gel and run at 165V for 2 hours. Following transfer to a PVDF membrane (iBlot2, Thermo Fisher Scientific), the membrane was blocked in Tris-buffered saline containing 0.1% Tween-20 (TBS-T) and supplemented with 5% powdered milk for 1 hour. Membranes were then probed with EGFR and tubulin (loaded control) primary antibodies in TBS-T containing 3% bovine serum albumin (BSA) overnight at 4° C. Membranes were washed thrice with TBS-T before incubation with secondary antibody in TBS-T containing 3% bovine serum albumin (BSA) and incubated for 1 hour at room temperature. Following 3 further washes with TBS, membrane proteins of interest were detected by enzyme-linked chemiluminescence (ECL) using a Chemidoc (Bio-Rad).

[2] = target: EGFR Exon20NPG (Homo sapiens (Human), UniProt P00533, INS770NPG); assay: TR-FRET assay for ERBB kinases; type: biochemical; conditions: geometric mean if measured more than once
Experimental: (§2) TR-FRET Assay for ERBB Kinases
(§3) All compounds and PROTACs were serially diluted in three-fold increments using 100% DMSO, followed by an intermediate 10-fold dilution using Buffer A (50 mM HEPES, pH 7.5, 50 mM NaCl, 10 mM MgCl2, 1 mM DTT, and 0.1% Pluronic F-68). Two microliters of serially diluted compound or PROTAC were then transferred to black 384-well Proxiplates (PerkinElmer, #6008260) using an Integra Viaflo96. Next, 10 uL of protein kinase in Buffer A was added to each well of the assay plate and pre-incubated with compound for 10 minutes. Kinase reactions were then initiated by addition of 5 uL substrate mix containing 3 mM ATP and 30 uM fluorescein-labeled Poly-GluTyr (Thermo Fisher, #PV3610) in Buffer A and allowed to proceed for 10 minutes at room temperature. Reactions were quenched by addition of a 5 uL mixture containing 5 nM LanthaScreen® Tb-pY20 Antibody (Thermo Fisher, #PV3552) and 40 mM EDTA in Buffer A. Assay plates were then read using a Synergy2 (Biotek Instruments, Winooski, Vt.) via excitation thru a 340/20 nm bandpass filter and emission collected thru 490/10 nm (donor) and 520/25 nm (acceptor) bandpass filters.

[3] = target: EGFR L858R/T790M/C797S triple mutant (H520*) (Homo sapiens (Human), UniProt P00533, C797S/L858R/T790M); assay: EGFR protein degradation assay (Western blot); type: cell-based; conditions: 72 hours, 300 nM to 10 nM
Experimental: as §1
Cells were incubated overnight at 37° C., 5% CO2 prior to compound addition. A 10 mM compound stock in DMSO was serially diluted in DMSO to provide the following stock concentrations: 1, 0.3, 0.1, 0.03 and 0.01 mM. An appropriate volume of each compound dilution, together with a DMSO vehicle control, was added to media to provide a 2× compound solution. […] At the end of the compound treatment, cells were washed once with ice-cold phosphate-buffered saline (PBS) and treated with lysis solution (1× lysis buffer, Cell Signaling Technologies (CST #9803) supplemented with Piarce™ protease inhibitors, #A32953, Thermo Fisher Scientific, TFS). Lysates were collected and clarified of cell debris by spinning at 10K rpm for 10 minutes. A specific volume of supernatant was retrieved for protein quantification (Pierce™ BCA kit, TFS #23225) and for Western analysis. Loading buffer supplemented with EDTA and reducing agent was added to each supernatant. A specific volume of supernatant (determined by protein assay: […] loaded per sample) was loaded into a NuPAGE™ 4-12% Bis-Tris gel (TFS). Samples were run at 165V in MOPS running buffer for 2 hours and then transferred to PVDF blotting membrane using a dry blotting system (iBlot2, TFS). Membranes were blocked in Tris-buffered saline supplemented with Tween, 0.1% (TBST) containing 5% non-fat dry milk, (AmericanBio). Following block, membranes were washed once with TBST. […] Membranes were washed 3× with TBST prior to addition of secondary antibody (1:10 000, anti-rabbit HRP-linked, CST #7074) in TBST with 3% BSA and then incubated at room temperature for one hour. Membranes were then washed 3× with TBS and signal developed by exposure to developer (SuperSignal West Femto, TFS) for 5 minutes. Membranes were then immediately imaged using a BioRad Chemidoc.

[4] = target: EGFR WT (Homo sapiens (Human), UniProt P00533); assay: TR-FRET assay for ERBB kinases; type: biochemical; conditions: geometric mean if measured more than once
Experimental: as §2
as §3, with “Two microliters of serially diluted compound or PROTAC were then transferred to black 384-well Proxiplates (PerkinElmer, #6008260) using an Integra Viaflo96.” left out

[5] = target: EGFR L858R/T790M (Homo sapiens (Human), UniProt P00533, L858R/T790M); assay: TR-FRET assay for ERBB kinases; type: biochemical; conditions: geometric mean if measured more than once
Experimental: as §2
as §3, with “Two microliters of serially diluted compound or PROTAC were then transferred to black 384-well Proxiplates (PerkinElmer, #6008260) using an Integra Viaflo96.” left out

[6] = target: EGFR L858R/T790M/C797S (Homo sapiens (Human), UniProt P00533, C797S/L858R/T790M); assay: TR-FRET assay for ERBB kinases; type: biochemical; conditions: geometric mean if measured more than once
Experimental: as §2
as §3, with “Two microliters of serially diluted compound or PROTAC were then transferred to black 384-well Proxiplates (PerkinElmer, #6008260) using an Integra Viaflo96.” left out

Chain of EGFR L858R/T790M/C797S triple mutant (H520*) (P00533 25-1210 T790M/C797S/L858R): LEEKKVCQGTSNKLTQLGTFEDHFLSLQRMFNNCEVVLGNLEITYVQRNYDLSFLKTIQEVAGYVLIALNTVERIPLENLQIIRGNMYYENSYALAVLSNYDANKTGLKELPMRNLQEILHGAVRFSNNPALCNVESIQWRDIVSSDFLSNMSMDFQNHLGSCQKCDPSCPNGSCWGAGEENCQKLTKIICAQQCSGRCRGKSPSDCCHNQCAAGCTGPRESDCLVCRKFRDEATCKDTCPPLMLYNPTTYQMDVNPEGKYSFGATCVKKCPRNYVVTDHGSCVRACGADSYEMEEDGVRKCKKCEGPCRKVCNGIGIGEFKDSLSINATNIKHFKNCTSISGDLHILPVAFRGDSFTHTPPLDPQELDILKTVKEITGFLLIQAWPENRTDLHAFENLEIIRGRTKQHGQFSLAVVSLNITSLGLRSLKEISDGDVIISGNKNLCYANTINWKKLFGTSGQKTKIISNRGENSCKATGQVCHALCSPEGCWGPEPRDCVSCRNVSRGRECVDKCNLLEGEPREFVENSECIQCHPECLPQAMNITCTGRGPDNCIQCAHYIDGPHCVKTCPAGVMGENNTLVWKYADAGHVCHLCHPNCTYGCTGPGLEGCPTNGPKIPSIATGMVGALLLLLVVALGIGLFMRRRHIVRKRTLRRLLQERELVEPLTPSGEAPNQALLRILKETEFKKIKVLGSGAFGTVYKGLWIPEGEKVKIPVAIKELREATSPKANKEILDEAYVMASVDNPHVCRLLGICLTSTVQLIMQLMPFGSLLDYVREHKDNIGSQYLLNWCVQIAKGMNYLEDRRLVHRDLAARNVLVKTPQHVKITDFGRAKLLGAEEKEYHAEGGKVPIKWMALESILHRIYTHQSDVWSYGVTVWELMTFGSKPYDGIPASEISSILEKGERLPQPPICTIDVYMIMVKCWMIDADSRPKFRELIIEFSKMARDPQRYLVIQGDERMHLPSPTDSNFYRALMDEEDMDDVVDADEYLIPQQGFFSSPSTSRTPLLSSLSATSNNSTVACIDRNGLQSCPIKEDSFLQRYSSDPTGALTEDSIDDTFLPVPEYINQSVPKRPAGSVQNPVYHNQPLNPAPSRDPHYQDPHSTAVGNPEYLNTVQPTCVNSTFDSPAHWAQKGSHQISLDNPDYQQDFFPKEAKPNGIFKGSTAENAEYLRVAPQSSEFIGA
Chain of EGFR L858R/T790M/C797S (P00533 25-1210 T790M/C797S/L858R): as above
Chain of EGFR WT (P00533 25-1210): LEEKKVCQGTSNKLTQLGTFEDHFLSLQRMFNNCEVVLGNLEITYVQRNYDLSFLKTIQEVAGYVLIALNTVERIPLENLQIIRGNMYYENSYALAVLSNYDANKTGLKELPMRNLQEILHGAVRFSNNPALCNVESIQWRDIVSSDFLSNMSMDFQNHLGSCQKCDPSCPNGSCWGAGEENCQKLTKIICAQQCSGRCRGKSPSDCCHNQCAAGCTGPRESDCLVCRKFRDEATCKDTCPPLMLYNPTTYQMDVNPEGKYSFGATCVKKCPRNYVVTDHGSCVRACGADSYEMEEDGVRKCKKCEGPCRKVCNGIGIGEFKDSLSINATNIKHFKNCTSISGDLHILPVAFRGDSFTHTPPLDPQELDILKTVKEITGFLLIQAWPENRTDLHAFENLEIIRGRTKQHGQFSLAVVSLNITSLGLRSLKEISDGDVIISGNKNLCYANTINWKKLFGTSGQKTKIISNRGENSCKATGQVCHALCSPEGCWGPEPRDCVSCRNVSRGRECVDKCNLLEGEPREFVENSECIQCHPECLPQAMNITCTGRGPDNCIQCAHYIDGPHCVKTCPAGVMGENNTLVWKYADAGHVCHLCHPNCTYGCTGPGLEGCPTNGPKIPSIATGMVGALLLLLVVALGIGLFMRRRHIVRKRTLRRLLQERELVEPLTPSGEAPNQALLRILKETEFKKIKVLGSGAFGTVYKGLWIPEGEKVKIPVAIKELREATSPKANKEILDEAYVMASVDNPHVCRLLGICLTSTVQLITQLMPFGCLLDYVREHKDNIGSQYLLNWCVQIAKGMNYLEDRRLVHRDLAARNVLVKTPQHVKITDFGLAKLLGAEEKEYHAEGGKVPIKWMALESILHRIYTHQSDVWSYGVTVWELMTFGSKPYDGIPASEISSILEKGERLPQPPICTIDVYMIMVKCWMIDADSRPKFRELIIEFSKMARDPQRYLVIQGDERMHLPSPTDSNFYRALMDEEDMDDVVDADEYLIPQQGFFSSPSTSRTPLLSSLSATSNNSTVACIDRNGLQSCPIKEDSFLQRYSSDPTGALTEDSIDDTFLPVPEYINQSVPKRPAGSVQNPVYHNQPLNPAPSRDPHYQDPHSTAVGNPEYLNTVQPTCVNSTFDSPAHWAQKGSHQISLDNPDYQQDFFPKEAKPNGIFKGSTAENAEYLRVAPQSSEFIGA
Chain of EGFR L858R/T790M (P00533 25-1210 T790M/L858R): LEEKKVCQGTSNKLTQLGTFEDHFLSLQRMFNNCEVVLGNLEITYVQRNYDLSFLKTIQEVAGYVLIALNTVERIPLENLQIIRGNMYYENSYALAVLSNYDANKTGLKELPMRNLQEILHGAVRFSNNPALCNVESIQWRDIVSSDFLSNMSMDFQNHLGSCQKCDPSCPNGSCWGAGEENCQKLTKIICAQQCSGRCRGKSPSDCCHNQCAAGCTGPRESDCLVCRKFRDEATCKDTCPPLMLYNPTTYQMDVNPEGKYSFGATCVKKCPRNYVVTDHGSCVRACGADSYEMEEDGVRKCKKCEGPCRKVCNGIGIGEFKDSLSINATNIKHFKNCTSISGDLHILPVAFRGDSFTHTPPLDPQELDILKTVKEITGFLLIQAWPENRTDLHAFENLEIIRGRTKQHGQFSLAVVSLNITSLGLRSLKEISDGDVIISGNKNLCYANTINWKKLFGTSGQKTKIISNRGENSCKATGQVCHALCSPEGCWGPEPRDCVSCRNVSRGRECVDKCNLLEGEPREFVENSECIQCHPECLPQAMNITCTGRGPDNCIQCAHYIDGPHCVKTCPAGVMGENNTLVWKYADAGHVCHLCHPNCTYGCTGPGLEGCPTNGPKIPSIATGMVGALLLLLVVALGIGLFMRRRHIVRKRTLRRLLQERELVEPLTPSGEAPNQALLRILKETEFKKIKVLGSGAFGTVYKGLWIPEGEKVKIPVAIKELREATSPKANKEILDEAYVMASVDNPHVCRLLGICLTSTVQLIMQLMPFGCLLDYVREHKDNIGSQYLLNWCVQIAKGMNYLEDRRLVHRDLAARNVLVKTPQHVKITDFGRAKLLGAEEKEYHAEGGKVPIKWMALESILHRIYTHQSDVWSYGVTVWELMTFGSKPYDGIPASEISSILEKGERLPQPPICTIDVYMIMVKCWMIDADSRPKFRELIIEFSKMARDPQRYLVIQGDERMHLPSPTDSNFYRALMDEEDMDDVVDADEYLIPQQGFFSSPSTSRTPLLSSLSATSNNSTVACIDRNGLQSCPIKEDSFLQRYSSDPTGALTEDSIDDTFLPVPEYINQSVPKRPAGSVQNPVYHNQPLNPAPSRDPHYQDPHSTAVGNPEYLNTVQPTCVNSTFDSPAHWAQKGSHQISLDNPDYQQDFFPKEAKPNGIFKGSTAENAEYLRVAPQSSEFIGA

With `Cc1ncsc1-c1ccc(CNC(=O)[C@@H]2C[C@@H](O)CN2C(=O)[C@H](C(C)C)N2Cc3ccccc3C2=O)c(OCCOCCOCC#Cc2cccc3c2C(=O)N([C@@H](C(=O)Nc2nccs2)c2cc(F)ccc2O)C3)c1` (single isomer, unassigned) [Example 256] the “EGFR protein remaining, EGFR L858R/T790M double mutant” value [1] was “C (>80% EGFR protein remaining after 72 hours of incubation with the test compound at a concentration of 300 nM)”, the IC50 [2] was 6100 nM and the “EGFR protein remaining, EGFR L858R/T790M/C797S triple mutant” value [3] was “C (>80% EGFR protein remaining after 72 hours of incubation with the test compound at a concentration of 300 nM)”. For the same compound, the IC50 [4] was 2500 nM, the IC50 [5] was 14000 nM and the IC50 [6] was 1400 nM.
`O=C1CCC(N2C(=O)c3ccc(N4CCN(CCCOCCCC#Cc5cccc6c5C(=O)N(C(C(=O)Nc5nccs5)c5cc(F)ccc5O)C6)CC4)cc3C2=O)C(=O)N1` (centres unmarked) [compound 95] was tested, and the “EGFR protein remaining, EGFR L858R/T790M double mutant” value [1] was “C (>80% EGFR protein remaining after 72 hours of incubation with the test compound at a concentration of 300 nM)”, the IC50 [2] was 3300 nM and the “EGFR protein remaining, EGFR L858R/T790M/C797S triple mutant” value [3] was “C (>80% EGFR protein remaining after 72 hours of incubation with the test compound at a concentration of 300 nM)”. For the same compound, the IC50 [4] was 4200 nM, the IC50 [5] was 6700 nM and the IC50 [6] was 2200 nM.
In the case of `Cc1ncsc1-c1ccc([C@H](C)NC(=O)[C@H]2C[C@H](O)CN2C(=O)[C@@H](NC(=O)COCCOCCOCCOCCOCCOc2ccc(-c3nccc(Nc4cc5c(cn4)nc(C)n5C(C)C)n3)cc2)C(C)(C)C)cc1` [compound 280], the IC50 [2] is reported as over 30000 nM, the “EGFR protein remaining, EGFR L858R/T790M/C797S triple mutant” value [3] is reported as “C (>80% EGFR protein remaining after 72 hours of incubation with the test compound at a concentration of 300 nM)” and the IC50 [4] is reported as over 30000 nM. For the same compound, the IC50 [5] was over 30000 nM and the IC50 [6] was over 30000 nM.
`Cc1ncsc1-c1ccc([C@H](C)NC(=O)[C@H]2C[C@H](O)CN2C(=O)[C@@H](NC(=O)COCCOCCOCCOCCOC2CCN(c3nccc(Nc4cc5c(cn4)nc(C)n5C(C)C)n3)CC2)C(C)(C)C)cc1` [compound 284] was tested, and the IC50 [2] was 30000 nM, the “EGFR protein remaining, EGFR L858R/T790M/C797S triple mutant” value [3] was “C (>80% EGFR protein remaining after 72 hours of incubation with the test compound at a concentration of 300 nM)” and the IC50 [4] was 14000 nM. The IC50 [5] was over 30000 nM and the IC50 [6] was 12000 nM.
For `COC1CCN(c2nccc(Nc3cc4c(cn3)nc(COCCN3CCN(c5ccc(OCCCOCC(=O)N[C@H](C(=O)N6C[C@H](O)C[C@H]6C(=O)NCc6ccc(-c7scnc7C)cc6)C(C)(C)C)cc5)CC3)n4C(C)C)n2)CC1` [compound 303], the “EGFR protein remaining, EGFR L858R/T790M/C797S triple mutant” value [3] was “A (≤50% EGFR protein remaining after 72 hours of incubation with the test compound at a concentration between 300 nM and 10 nM)”, the IC50 [4] was over 30000 nM and the IC50 [5] was 550 nM. The IC50 [6] was 250 nM.
With `COC1CCN(c2nccc(Nc3cc4c(cn3)nc(COCCN3CCN(c5ccc(O[C@H]6C[C@H](OCC(=O)N[C@H](C(=O)N7C[C@H](O)C[C@H]7C(=O)NCc7ccc(-c8scnc8C)cc7)C(C)(C)C)C6)cc5)CC3)n4C(C)C)n2)CC1` [Example 302, (2S,4R)-4-hydroxy-1-((S)-2-(2-((1r,3s)-3-(4-(4-(2-((1-isopropyl-6-((2-(4-methoxypiperidin-1-yl)pyrimidin-4-yl)amino)-1H-imidazo[4,5-c]pyridin-2-yl)methoxy)ethyl)piperazin-1-yl)phenoxy)cyclobutoxy)acetamido)-3,3-dimethylbutanoyl)-N-(4-(4-methylthiazol-5-yl)benzyl)pyrrolidine-2-carboxamide] the “EGFR protein remaining, EGFR L858R/T790M/C797S triple mutant” value [3] was “A (≤50% EGFR protein remaining after 72 hours of incubation with the test compound at a concentration between 300 nM and 10 nM)”, the IC50 [4] was over 30000 nM and the IC50 [5] was 670 nM. It also gave an IC50 [6] of 320 nM.
With `O=C1CCC(N2C(=O)c3ccc(OCCOCCOCCOCCCc4cccc5c4C(=O)N(C(C(=O)Nc4nccs4)c4cc(F)ccc4O)C5)cc3C2=O)C(=O)N1` (centres unmarked) [Example 283, 2-(7-(3-(2-(2-(2-((2-(2,6-dioxopiperidin-3-yl)-1,3-dioxoisoindolin-5-yl)oxy)ethoxy)ethoxy)ethoxy)propyl)-1-oxoisoindolin-2-yl)-2-(5-fluoro-2-hydroxyphenyl)-N-(thiazol-2-yl)acetamide] the IC50 [2] was 4600 nM, the “EGFR protein remaining, EGFR L858R/T790M/C797S triple mutant” value [3] was “C (>80% EGFR protein remaining after 72 hours of incubation with the test compound at a concentration of 300 nM)” and the IC50 [4] was 1200 nM. It also gave an IC50 [5] of 2800 nM and an IC50 [6] of 820 nM.
`CC(C)n1c(COCCN2CCN(c3ccc(OCCCN4CCN(c5ccc6c(c5)C(=O)N(C5CCC(=O)NC5=O)C6=O)CC4)cc3)CC2)nc2cnc(Nc3ccnc(-c4cnn(S(=O)(=O)C5CC5)c4)n3)cc21` (centres unmarked) [compound 305] was tested, and the “EGFR protein remaining, EGFR L858R/T790M/C797S triple mutant” value [3] was “C (>80% EGFR protein remaining after 72 hours of incubation with the test compound at a concentration of 300 nM)”, the IC50 [4] was 2100 nM and the IC50 [5] was 9.8 nM. For the same compound, the IC50 [6] was 1.3 nM.
For `O=C1CCC(N2C(=O)c3ccc(N4CCC(CN5CCC(OCC#Cc6cccc7c6C(=O)N(C(C(=O)Nc6nccs6)c6cc(F)ccc6O)C7)CC5)CC4)cc3C2=O)C(=O)N1` (centres unmarked) [compound 290], the “EGFR protein remaining, EGFR L858R/T790M/C797S triple mutant” value [3] was “B (≤80% and >50% EGFR protein remaining after 72 hours of incubation with the test compound at a concentration between 300 nM and 10 nM)”, the IC50 [4] was 1100 nM and the IC50 [5] was 2700 nM. The IC50 [6] was 140 nM.
In the case of `O=C1CCC(N2C(=O)c3ccc(N4CCN(CC5CCN(CCCc6cccc7c6C(=O)N(C(C(=O)Nc6nccs6)c6cc(F)ccc6O)C7)CC5)CC4)cc3C2=O)C(=O)N1` (centres unmarked) [compound 294], the “EGFR protein remaining, EGFR L858R/T790M/C797S triple mutant” value [3] is reported as “C (>80% EGFR protein remaining after 72 hours of incubation with the test compound at a concentration of 300 nM)”, the IC50 [4] is reported as 3500 nM and the IC50 [5] is reported as 810 nM. For the same compound, the IC50 [6] was 170 nM.
